Where a SMILES comes first, the peptide text is derived from it. [ ]: non-standard residue; d: D form. The star is where a group is joined. 5FAM = O=C1OC2(c3ccc(O)cc3Oc3cc(O)ccc32)c2ccc(C(=O)*)cc21; pT = C[C@@H](OP(=O)(O)O)[C@H](N)C(=O)O; pS = N[C@@H](COP(=O)(O)O)C(=O)O
Legend:
TOPBP1-BRCT4,5 = target: T1, TOPBP1-BRCT4,5 (Homo sapiens, UniProt Q92547); assay: Fluorescence polarisation titration, TOPBP1-BRCT4,5; type: binding; conditions: read-out: Kd
T1 construct: made in house; host or cells: E. coli BL21(DE3)
Description: (§1) Fluorescein-labelled peptides (Peptide Protein Research Ltd, Fareham, UK) at a concentration of 200 nM, were incubated at room temperature with increasing concentrations of recombinant protein in 25 mM HEPES pH 7.5, 150 mM NaCl, 1 mM EDTA, 0.25 mM TCEP, 0.02% (v/v) Tween-20. Four parallel replicates of each titration were dispensed into a black 96-well polypropylene plate (VWR, Lutterworth, UK) for measurement. Fluorescence polarisation was measured in a CLARIOstar multimode microplate reader (BMG Labtech, Aylesbury, UK). Binding curves represent the mean of 4 independent experiments, with error bars indicating one standard deviation. All data were fitted by non-linear regression, to a one site-specific binding model in Prism seven for Mac OS X (v 7.0d, GraphPad Software) in order to calculate the reported dissociation constants (Kd). Low-affinity non-specific responses for which a binding curve could not be determined are marked as ND.

TOPBP1-BRCT7,8 = target: T2, TOPBP1-BRCT7,8 (Homo sapiens, UniProt Q92547); assay: Fluorescence polarisation titration, TOPBP1-BRCT7,8; type: binding
T2 construct: made in house; host or cells: E. coli BL21(DE3)
Description: as §1

SpNbs1 = target: T3, SpNbs1 (Schizosaccharomyces pombe, UniProt O43070); assay: Fluorescence polarisation titration, SpNbs1; type: binding, S. pombe; conditions: FP, fluorescein-peptide 200 nM, HEPES pH 7.5, room temperature, one-site fit, 4 replicates
T3 construct: made in house; host or cells: E. coli BL21(DE3)
T3 sequence (O43070 1-613): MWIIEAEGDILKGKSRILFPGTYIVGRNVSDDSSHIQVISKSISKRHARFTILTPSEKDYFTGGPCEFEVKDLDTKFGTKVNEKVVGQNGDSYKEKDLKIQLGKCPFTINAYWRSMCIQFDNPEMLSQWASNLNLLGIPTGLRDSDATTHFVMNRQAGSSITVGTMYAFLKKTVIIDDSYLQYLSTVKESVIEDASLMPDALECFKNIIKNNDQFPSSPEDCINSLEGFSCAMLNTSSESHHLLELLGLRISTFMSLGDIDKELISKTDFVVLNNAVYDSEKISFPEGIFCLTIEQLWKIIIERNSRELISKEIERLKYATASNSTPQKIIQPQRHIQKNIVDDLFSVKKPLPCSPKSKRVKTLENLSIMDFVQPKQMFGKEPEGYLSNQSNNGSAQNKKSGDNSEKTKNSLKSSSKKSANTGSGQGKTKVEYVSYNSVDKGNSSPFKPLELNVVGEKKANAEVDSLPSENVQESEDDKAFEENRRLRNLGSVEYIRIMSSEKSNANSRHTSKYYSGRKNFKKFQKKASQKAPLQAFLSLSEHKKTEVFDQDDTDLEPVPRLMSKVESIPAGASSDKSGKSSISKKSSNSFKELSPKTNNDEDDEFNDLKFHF
Description: as §1

Rad4-BRCT1,2 WT = target: T4, Rad4-BRCT1,2 WT (Schizosaccharomyces pombe, UniProt P32372); assay: Fluorescence polarisation titration, Rad4-BRCT1,2 wild-type; conditions: FP, fluorescein-peptide 200 nM, HEPES pH 7.5, room temperature, one-site fit, 4 replicates; ND = low-affinity non-specific response, no binding curve
T4 construct: made in house; host or cells: E. coli BL21(DE3)
T4 sequence (P32372 1-186 limits assumed): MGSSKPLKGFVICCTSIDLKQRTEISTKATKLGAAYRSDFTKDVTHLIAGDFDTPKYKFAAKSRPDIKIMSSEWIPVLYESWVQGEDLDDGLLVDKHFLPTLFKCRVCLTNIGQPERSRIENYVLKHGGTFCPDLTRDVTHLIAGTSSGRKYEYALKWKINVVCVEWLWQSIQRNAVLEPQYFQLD
Description: as §1

Rad4-BRCT3,4 = target: T5, Rad4-BRCT3,4 (Schizosaccharomyces pombe, UniProt P32372); assay: Fluorescence polarisation titration, Rad4-BRCT3,4; conditions: FP, fluorescein-peptide 200 nM, HEPES pH 7.5, room temperature; ND = low-affinity non-specific response, no binding curve
T5 construct: made in house; host or cells: E. coli BL21(DE3)
T5 sequence (P32372 291-494 limits assumed): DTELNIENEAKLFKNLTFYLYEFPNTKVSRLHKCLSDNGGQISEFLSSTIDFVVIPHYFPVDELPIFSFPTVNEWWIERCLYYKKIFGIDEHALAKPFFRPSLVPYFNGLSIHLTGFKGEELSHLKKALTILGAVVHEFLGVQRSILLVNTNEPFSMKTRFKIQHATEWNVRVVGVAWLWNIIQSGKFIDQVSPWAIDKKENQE
Description: as §1

T2 sequence (Q92547 1264-1493 limits assumed): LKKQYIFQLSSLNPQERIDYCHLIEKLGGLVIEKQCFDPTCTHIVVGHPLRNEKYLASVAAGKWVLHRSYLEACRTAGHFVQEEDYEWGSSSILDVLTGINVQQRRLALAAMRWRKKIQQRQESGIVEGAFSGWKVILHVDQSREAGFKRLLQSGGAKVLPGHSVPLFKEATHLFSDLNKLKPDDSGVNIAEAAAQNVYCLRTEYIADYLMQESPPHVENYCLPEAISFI
T1 sequence (Q92547 549-746 limits assumed): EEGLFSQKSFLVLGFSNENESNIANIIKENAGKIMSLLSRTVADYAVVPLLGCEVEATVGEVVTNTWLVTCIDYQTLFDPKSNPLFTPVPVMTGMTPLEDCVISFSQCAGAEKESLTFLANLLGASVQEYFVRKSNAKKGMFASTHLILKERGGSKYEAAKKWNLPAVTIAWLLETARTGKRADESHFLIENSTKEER

## CC[C@H](C)[C@H](NC(=O)[C@H](CCC(=O)O)NC(=O)[C@H](CCC(=O)O)NC(=O)[C@@H]1CCCN1C(=O)[C@H](COP(=O)(O)O)NC(=O)[C@@H]1CCCN1C(=O)[C@@H]1CCCN1C(=O)[C@@H](NC(=O)[C@H](Cc1ccccc1)NC(=O)[C@H](CC(=O)O)NC(=O)[C@@H](NC(=O)[C@H](CC(=O)O)NC(=O)CNC(=O)[C@H](Cc1ccc(O)cc1)NC(=O)CNC(=O)c1ccc2c(c1)C(=O)OC21c2ccc(O)cc2Oc2cc(O)ccc21)[C@@H](C)O)C(C)C)C(=O)N[C@H](C(=O)N[C@@H](CO)C(=O)N[C@@H](C)C(=O)O)[C@@H](C)CC [BLM pS304, reference compound] (5FAM-GYGDTDFVPP[pS]PEEIISA-OH)
TOPBP1-BRCT4,5
  Kd: 3460 ± 540 nM

## CC[C@H](C)[C@H](NC(=O)[C@H](CO)NC(=O)[C@H](CCC(=O)O)NC(=O)[C@H](CC(=O)O)NC(=O)[C@H](CCC(=O)O)NC(=O)CNC(=O)[C@H](Cc1ccc(O)cc1)NC(=O)CNC(=O)c1ccc2c(c1)C(=O)OC21c2ccc(O)cc2Oc2cc(O)ccc21)C(=O)N[C@@H](Cc1ccc(O)cc1)C(=O)N[C@@H](Cc1ccccc1)C(=O)N[C@H](C(=O)N1CCC[C@H]1C(=O)N[C@@H](CCC(=O)O)C(=O)N[C@@H](CC(C)C)C(=O)N[C@@H](Cc1ccc(O)cc1)C(=O)N[C@@H](CC(=O)O)C(=O)N1CCC[C@H]1C(=O)N[C@@H](CCC(=O)O)C(=O)O)[C@@H](C)OP(=O)(O)O [FANCJ pT1133, reference compound] (5FAM-GYGEDESIYF[pT]PELYDPE-OH)
TOPBP1-BRCT7,8
  Kd: 140 ± 10 nM

## CC(C)[C@H](NC(=O)CNC(=O)[C@H](Cc1ccc(O)cc1)NC(=O)CNC(=O)c1ccc2c(c1)C(=O)OC21c2ccc(O)cc2Oc2cc(O)ccc21)C(=O)N[C@@H](CCC(=O)O)C(=O)NCC(=O)N[C@@H](CC(=O)O)C(=O)N[C@@H](Cc1c[nH]cn1)C(=O)N[C@@H](CO)C(=O)N[C@@H](COP(=O)(O)O)C(=O)N[C@@H](CC(=O)O)C(=O)N[C@H](C(=O)N[C@@H](CCC(=O)O)C(=O)N[C@@H](CCC(=O)O)C(=O)N[C@@H](CCC(=O)O)C(=O)N[C@H](C(=O)N[C@H](C(=O)N[C@@H](CO)C(=O)O)C(C)C)C(C)C)[C@@H](C)OP(=O)(O)O [Mdb1 pS216, pT218] (5FAM-GYGVEGDHS[pS]D[pT]EEEVVS-OH)
SpNbs1
  Kd: sub-micromolar affinity
Rad4-BRCT1,2 WT
  Kd: no binding was observed
Rad4-BRCT3,4
  Kd: no binding was observed

Reference: article PMC6175577, “BRCT domains of the DNA damage checkpoint proteins TOPBP1/Rad4 display distinct specificities for phosphopeptide ligands” (eLife, 2018)
